Assay results reported in patent publication US20100204132A1, “[…] USES OF PEPTIDES […] and […]” (priority 2007, published 2010).
Where no end group is shown, it is not given here.

Legend:
[1] = test system: HIV-1IIIB; experiment: HIV-1 antiviral assay in CEM-SS cells (MTS readout)
[2] = test system: hepatitis B virus (HBV) ayw strain; experiment: HBV experimental assay system, secreted HBV DNA by TaqMan PCR; type: cell-based; details: 10 micrograms per ml; HepG2-2.2.15 cells; six days
[3] = test system: HCMV strain AD169; experiment: HCMV plaque formation assay in MRC-5 cells; type: cell-based; details: 10 micrograms per ml, 7-10 days
Excerpt: Cells were split twic a week 1:2.
Ganciclovir was used as positive control.

[4] = test system: Streptococcus pneumoniae; experiment: Streptococcus pneumoniae growth assay; type: cell-based; details: 10 micrograms per ml; 5×10^5 CFU/mL
[5] = test system: murine spleen cells; experiment: Th1/Th2 cytokine profiling assay in Ovalbumin-restimulated spleen cells; type: cell-based, Balb/c mice; details: 10 micrograms per ml, Ovalbumin restimulation, 72 hours
[6] = test system: Primary Human endothelial cells (HUVEC); experiment: Endothelial cell migration assay; type: cell-based; details: 10 micrograms per ml, 22 hours
Procedure: Thereafter, designated concentration of testing peptides—10 micrograms per ml—was added in duplicate wells.

[7] = test system: HUVEC; experiment: Endothelial tube formation assay; type: cell-based, human; details: 10 micrograms per ml, 20 hours
Excerpt: […] control wes vehicle only. […] Raw data were expressed as average tubule lenghs in pixels±standard deviation.

Row | Compound | antiviral activity of positive control compounds (HIV-1) [1] | inhibition of HBV replication as compared to the virus control infection [2] | inhibition of HCMV plaque formation as compared to the virus control [3] | inhibition of the growth of Streptococcus pneumoniae [4] | change of the production of IFN-γ [5] | change of the production of IL-5 [5] | change of the production of TNF-a [5] | induction (increase) of the production of IL-2 [5] | induction (increase) of the production of IL-4 [5] | increase of the migration of human endothelial cells [6] | inhibition of the tube formation of human endothelial cells [7]
1 | Cc1cn([C@H]2C[C@H](N=[N+]=[N-])[C@@H](CO)O2)c(=O)[nH]c1=O [AZT] | expected levels of antiviral activity | – | – | – | – | – | – | – | – | – | –
2 | CC(C)(C)NC(=O)[C@@H]1CN(Cc2cccnc2)CCN1C[C@@H](O)C[C@@H](Cc1ccccc1)C(=O)N[C@H]1c2ccccc2C[C@H]1O [indinavir] | expected levels of antiviral activity | – | – | – | – | – | – | – | – | – | –
3 | Trp-Met-Asn-Ser-Thr-Gly-Phe-Thr-Lys-Val-Cys-Gly-Ala-Pro-Pro-Cys-OH (WMNSTGFTKVCGAPPC-OH; cysteine pairing not given here) [Peptide 2] | – | 53.2% | did not inhibit | 100% | did not significantly change | did not significantly change | did not significantly change | 92.6% | 87.3% | 7% | 8%
4 | Tyr-Ser-Ala-Tyr-Pro-Asp-Ser-Val-Pro-Met-Met-Ser-OH [Peptide 1] | – | 51.1% | did not inhibit | 100% | did not significantly change | did not significantly change | did not significantly change | 82.2% | 74.3% | 4% | 4%
